Active and inactive are the calls of the source.
Columns and labels:
Cytochrome P450 3A4 = Cytochrome P450 3A4 (Homo sapiens, UniProt P08684); conditions: Potency;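 note: confirmatory qHTS run detecting inhibitors and substrates of CYP3A4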
Cytochrome P450 2D6 = Cytochrome P450 2D6 (Homo sapiens, UniProt P10635); test: qHTS Assay for Inhibitors and Substrates of Cytochrome P450 2D6. [Related pubchem assays: 410 ]; format: ADME; conditions: read-out: Potency
[1] = antiviral protection against BTV-induced cell death – arbovirus, BSR cells, confirmation (AID 1250); format: functional;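 note: protection from viral cytopathic effect measured as cell viability by ATP luminescence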
cells [2] = test: cells
[3] = viability of uninfected HEp-2 cells – cell-based, HTS, cytotoxicity control for RSV inhibitor project, dose response (AID 2410); format: functional; conditions: human respiratory syncytial virus
[4] = target: Long-chain-fatty-acid--AMP ligase FadD28 (Mycobacterium tuberculosis, UniProt P9WQ59); test: Fluorescence polarization aasay to screen for inhibitors that compete for the binding of FadD28 to a bisubstrate Measured in Biochemical System Using Plate Reader - 2147-01_Inhibitor_Dose_CherryPick_Activity.; format: functional, Mycobacterium tuberculosis H37Rv
Sequence of Long-chain-fatty-acid--AMP ligase FadD28 (P9WQ59 whole entry): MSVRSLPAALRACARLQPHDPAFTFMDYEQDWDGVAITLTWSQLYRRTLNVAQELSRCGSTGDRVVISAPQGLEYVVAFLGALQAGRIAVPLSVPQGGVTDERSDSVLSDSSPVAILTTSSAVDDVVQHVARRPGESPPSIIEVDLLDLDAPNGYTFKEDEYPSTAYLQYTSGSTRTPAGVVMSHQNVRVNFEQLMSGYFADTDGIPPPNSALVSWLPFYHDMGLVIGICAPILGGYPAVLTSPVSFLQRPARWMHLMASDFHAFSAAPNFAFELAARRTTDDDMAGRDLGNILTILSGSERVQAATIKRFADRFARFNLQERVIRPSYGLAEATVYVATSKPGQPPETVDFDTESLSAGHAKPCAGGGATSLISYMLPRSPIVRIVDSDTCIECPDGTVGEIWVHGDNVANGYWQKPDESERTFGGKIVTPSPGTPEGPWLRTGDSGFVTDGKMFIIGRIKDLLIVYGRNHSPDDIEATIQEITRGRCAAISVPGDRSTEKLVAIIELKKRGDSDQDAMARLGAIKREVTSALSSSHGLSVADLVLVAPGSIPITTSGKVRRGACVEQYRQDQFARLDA

[5] = Vero E6 cell cytotoxicity, dose response, cytotoxicity control for non-replicating M. tuberculosis project, secondary assay (AID 492998); format: functional, VeroE6; conditions: Vero C1008
Paired box protein Pax-8 = Paired box protein Pax-8 (Homo sapiens, UniProt Q06710); test: PAX8 transcriptional activity inhibition in RMG-I – RMG-I cells, luciferase, cherry-pick, dose response (AID 687027); format: functional, cell-based;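 note: luciferase reporter driven by Pax8 target thyroperoxidase promoter measured by SteadyGlo luminescence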
Sequence of Paired box protein Pax-8 (Q06710 whole entry): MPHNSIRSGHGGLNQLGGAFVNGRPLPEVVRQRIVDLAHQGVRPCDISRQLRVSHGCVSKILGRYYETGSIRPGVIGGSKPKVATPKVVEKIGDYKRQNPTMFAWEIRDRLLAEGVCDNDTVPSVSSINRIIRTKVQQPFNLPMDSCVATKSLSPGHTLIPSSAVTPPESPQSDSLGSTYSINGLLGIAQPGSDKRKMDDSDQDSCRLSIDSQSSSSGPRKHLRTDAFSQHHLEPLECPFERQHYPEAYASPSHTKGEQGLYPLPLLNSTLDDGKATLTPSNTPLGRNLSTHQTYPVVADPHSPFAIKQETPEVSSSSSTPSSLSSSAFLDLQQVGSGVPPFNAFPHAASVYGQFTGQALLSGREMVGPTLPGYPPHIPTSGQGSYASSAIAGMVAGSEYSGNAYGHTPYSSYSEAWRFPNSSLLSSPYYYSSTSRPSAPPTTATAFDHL

[6] = microbe, parasite or virus in culture; format: functional; conditions: Mycobacterium tuberculosis
[7] = target: Photoreceptor-specific nuclear receptor (Homo sapiens, UniProt Q9Y5X4); format: functional, cell-based;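 note: CHO-S cells with Gal4-NCOR and VP16-NR2E3 two-hybrid luciferase reporter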
Sequence of Photoreceptor-specific nuclear receptor (Q9Y5X4 whole entry, the tested form may be a part): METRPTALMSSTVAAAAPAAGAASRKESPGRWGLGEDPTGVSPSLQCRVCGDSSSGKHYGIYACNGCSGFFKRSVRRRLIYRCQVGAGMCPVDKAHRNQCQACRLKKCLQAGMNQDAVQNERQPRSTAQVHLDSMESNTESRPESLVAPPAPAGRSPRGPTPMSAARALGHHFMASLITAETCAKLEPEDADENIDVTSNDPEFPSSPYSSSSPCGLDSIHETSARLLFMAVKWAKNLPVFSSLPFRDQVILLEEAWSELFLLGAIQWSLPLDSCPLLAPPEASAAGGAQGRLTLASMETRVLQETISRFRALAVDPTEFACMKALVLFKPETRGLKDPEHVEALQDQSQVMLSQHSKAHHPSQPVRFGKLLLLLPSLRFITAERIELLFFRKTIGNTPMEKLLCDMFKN

[8] = viability of HCT116 lacking mutant beta-catenin – cell-based, human colon tumor, dose response (AID 1045); format: functional;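 note: HCT116 colon tumor cells with beta catenin knocked out; cells exposed to compound for 60 hours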
cells [9] = format: functional
[10] = general cell-killing toxicity readout – plate reader, dry powder samples, cytotoxicity control for PAX8 inhibitor project, dose response (AID 743021); format: functional, cell-based
[11] = Fluorescence-based cell-based high throughput dose response assay for inhibitors of the interaction of nucleotide-binding oligomerization domain containing 2 (NOD2) and the receptor-interacting serine-threonine kinase 2 (RIPK2).; format: functional; conditions: Homo sapiens
[12] = THP-1 cell cytotoxicity, dose response, cytotoxicity control for non-replicating M. tuberculosis project (AID 489025); format: functional
HeLa = test: Cytotoxicity counterscreen assay for transcriptional activators of heat shock protein 70 (Hsp70). [Related pubchem assays: 1203, 1252 ]; format: functional; conditions: Homo sapiens;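 note: cells exposed to compound for 16 hours before readout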
Beta Lactamase = Beta Lactamase (Pseudomonas aeruginosa, UniProt Q932Y6); test: BLA reporter interference, concentration series – BLA reporter cells, FRET fluorescence, artefact control for TLR9-MyD88 binding inhibitor project, dose response (AID 588341); format: cell-based;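 note: cell based assay in CHO-K1 cells stably expressing beta-lactamase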
Sequence of Beta Lactamase (Q932Y6 whole entry): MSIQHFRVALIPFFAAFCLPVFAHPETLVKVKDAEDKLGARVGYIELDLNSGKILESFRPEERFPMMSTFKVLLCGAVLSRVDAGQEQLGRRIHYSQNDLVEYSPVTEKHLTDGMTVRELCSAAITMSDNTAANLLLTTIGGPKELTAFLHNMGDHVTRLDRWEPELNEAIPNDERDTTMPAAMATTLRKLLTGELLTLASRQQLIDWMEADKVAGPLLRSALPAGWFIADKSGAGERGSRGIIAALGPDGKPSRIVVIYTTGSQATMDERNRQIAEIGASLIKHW

[13] = viability of PTEN-deleted HCT116 cells – cell-based, HCT116 PTEN knockout, dose response (AID 1047); format: functional;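 note: HCT116 colon tumor cells with PTEN knocked out; cells exposed to compound for 60 hours before readout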
CHO = CHO cell viability loss, potency – luminescence, cytotoxicity control for TLR9-MyD88 binding inhibitor project, dose response (AID 588339); format: functional, cell-based, hamster; conditions: Cricetulus griseus;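 note: CHO cells stably coexpressing TLR9 and MyD88 fusions from primary screen; compound exposure lasted 48 hours before viability readout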
INS1 = test: INS-1E survival protection against cytokine death – cell-based, luminescence, retest, dose response (AID 449756); format: functional; conditions: Rattus norvegicus;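 note: cell death triggered by IL-1 beta plus TNF-alpha plus IFN-gamma mixture; protective hits raise ATP signal compared with cytokine alone wells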
NS3 = NS3 (Hepatitis C virus, UniProt A3EZJ3); test: PubChem AID 2173; set-up: species or system Hepacivirus hominis
Sequence of NS3 (A3EZJ3 whole entry): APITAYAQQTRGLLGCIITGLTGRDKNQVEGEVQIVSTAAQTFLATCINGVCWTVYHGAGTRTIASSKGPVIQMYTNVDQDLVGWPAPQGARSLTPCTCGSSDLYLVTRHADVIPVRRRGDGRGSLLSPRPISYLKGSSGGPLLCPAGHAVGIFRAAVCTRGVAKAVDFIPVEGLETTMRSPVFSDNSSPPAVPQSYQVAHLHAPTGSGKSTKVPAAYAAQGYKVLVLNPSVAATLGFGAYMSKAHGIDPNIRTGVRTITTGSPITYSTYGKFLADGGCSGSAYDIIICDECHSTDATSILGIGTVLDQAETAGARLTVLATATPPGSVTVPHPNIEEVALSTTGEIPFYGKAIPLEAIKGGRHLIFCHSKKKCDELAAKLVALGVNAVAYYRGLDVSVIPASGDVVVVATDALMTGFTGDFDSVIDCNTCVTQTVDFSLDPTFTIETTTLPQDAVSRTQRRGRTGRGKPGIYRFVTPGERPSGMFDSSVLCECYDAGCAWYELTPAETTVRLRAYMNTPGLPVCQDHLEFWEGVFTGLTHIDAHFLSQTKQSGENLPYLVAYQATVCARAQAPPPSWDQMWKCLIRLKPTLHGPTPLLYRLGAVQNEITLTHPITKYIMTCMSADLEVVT

[14] = test system: Streptococcus sp. 'group A'; test: Streptococcus pyogenes SK(-)GAS viability under kanamycin – luminescence, BacTiterGlo, confirmation, counter-screen for streptokinase expression inhibitor project, dose response (AID 1900); format: functional, organism-based
Streptococcus [15] = test: GAS UMAA2166 growth inhibition – luminescence, BacTiterGlo, counter-screen for streptokinase expression inhibitor project, dose response (AID 1915); format: functional, organism-based;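 note: potency for reduction of bacterial viability or growth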
Streptokinase A = target: T1, Streptokinase A (Streptococcus pyogenes serotype M1, UniProt P10520); test: viability-normalized secreted streptokinase activity reduction – plasminogen activation absorbance, OD405, dose response (AID 1914); format: functional, Streptococcus pyogenes M1 GAS;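 note: secreted streptokinase activity via plasminogen activation per viability signal from cell pellet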
T1 sequence (P10520 whole entry): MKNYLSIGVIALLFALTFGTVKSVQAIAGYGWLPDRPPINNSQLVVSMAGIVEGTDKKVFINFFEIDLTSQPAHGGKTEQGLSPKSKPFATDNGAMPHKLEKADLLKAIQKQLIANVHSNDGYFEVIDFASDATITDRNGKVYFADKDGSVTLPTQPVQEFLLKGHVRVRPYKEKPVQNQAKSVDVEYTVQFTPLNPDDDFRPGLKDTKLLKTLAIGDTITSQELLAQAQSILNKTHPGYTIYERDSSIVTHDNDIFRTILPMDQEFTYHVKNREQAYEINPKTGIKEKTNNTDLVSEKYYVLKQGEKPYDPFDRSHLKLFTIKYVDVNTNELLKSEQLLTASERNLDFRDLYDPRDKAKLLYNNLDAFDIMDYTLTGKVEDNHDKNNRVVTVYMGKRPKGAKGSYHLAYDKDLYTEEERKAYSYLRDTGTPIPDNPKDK

Streptococcus [16] = test: Luminescence Microorganism-Based Dose Response Follow up to Identify Compounds Cytotoxic to Streptococcus. [Related pubchem assays: 1677 (Project Summary), 1915, 1914, 1902 (Retest at Dose), 1900 (Counter Screen), 1662 (Primary HTS)]; format: functional, organism-based
[17] = luciferase reporter signal suppression in cells – H4 neuroglioma cells, luminescence, dose response (AID 1990); format: functional, cell-based
cells [18] = format: functional, cell-based
BJ [19] = test: BJ-TERT fibroblast viability loss – cell-based, RAS-independent, luminescence, dose response (AID 1933); format: functional; conditions: Homo sapiens
BJ [20] = test: growth inhibition of engineered Ras-driven BJ cells – cell-based, alamar blue fluorescence, cherrypicked samples, dose response (AID 2631); format: functional; conditions: Homo sapiens;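 note: confirmatory dose-response assay in RAS-dependent BJ fibroblasts engineered with TERT, LT and ST, with cytotoxicity read by fluorescence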
BJ [21] = test: cells; format: functional, cell-based; conditions: Homo sapiens
[22] = alpha-synuclein stem-loop luciferase translation blockers – H4 neuroglioma cells, luminescence, confirmation (AID 1988); format: functional, cell-based
Aminopeptidase N = target: T2, Aminopeptidase N (Plasmodium falciparum FcB1/Columbia, UniProt O96935); test: malaria alanyl aminopeptidase activity blockers – biochemical, fluorogenic H-Leu-NHMec substrate, 1536-well (AID 1445); set-up: species or system Plasmodium falciparum 3D7, 3D7
T2 sequence (O96935 whole entry): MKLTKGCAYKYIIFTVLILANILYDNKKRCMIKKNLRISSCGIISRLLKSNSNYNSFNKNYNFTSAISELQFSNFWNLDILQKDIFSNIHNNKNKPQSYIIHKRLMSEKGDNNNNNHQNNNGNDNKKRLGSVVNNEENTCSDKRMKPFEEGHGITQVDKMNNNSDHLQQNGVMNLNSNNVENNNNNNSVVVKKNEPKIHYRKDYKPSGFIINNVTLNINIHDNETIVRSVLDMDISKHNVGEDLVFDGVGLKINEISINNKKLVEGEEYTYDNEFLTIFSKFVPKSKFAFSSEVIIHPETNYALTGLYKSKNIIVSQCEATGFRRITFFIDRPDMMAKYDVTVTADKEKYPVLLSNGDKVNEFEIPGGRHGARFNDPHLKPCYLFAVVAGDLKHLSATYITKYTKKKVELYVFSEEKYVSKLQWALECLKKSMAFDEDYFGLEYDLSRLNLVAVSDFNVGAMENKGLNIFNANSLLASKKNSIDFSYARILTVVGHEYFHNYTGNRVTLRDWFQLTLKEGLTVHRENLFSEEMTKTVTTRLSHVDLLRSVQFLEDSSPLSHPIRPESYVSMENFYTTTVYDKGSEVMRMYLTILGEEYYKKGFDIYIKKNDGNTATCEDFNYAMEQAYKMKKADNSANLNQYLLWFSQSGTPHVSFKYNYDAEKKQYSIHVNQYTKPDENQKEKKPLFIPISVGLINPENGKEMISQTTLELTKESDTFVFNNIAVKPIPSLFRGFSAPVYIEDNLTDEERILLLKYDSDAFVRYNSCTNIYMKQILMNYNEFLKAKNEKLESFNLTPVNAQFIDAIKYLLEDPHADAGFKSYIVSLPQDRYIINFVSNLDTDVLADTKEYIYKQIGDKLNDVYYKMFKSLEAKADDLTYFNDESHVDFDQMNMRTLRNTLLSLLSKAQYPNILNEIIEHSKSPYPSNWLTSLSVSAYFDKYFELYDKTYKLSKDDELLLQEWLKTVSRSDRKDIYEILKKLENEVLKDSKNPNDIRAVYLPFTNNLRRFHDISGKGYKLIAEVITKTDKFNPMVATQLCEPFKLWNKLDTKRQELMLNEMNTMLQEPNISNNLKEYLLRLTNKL

[23] = Luminescence Cell-Based Dose Response HTS to Identify Inhibitors of 5'UTR Stem-Loop Driven Prion Protein mRNA Translation in H4 Neuroglioblastoma Cells. [Related pubchem assays: 1827 (Project Summary), 1813 (Primary HTS)]; format: functional
[24] = Luminescence-based dose response cell-based high throughput screening assay for cytotoxic compounds using the IEC-6 intestinal epithelial cell line. [Related pubchem assays: 1858 (Summary AID.), 1825 (Counterscreen.), 1907 (Confirmation screen.)]; format: functional
BJ [25] = test: BJ-TERT-LT-ST fibroblast viability loss – cell-based, RAS-independent, luminescence, dose response (AID 1935); format: functional; conditions: Homo sapiens;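 note: BJ fibroblasts immortalized with TERT plus LT and ST oncogenes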
[26] = alpha-synuclein stem-loop translation blockers – luminescence, H4 neuroglioblastoma cells, dose confirmation, confirmation (AID 2454); format: functional, cell-based;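 note: H4 neuroglioblastoma cells carrying an alpha-synuclein 5'UTR luciferase reporter; potency for inhibition of the luciferase signal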
HEK293 = test: EBV LMP1 TES2 canonical NF-kB signalling blockers – cell-based, HEK293, luciferase, cherry-pick, dose response (AID 588343); format: functional; conditions: Homo sapiens
[27] = luciferase reporter signal reduction – luminescence, H4-C neuroglioblastoma cells, dose response (AID 2458); format: functional, cell-based;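 note: H4 neuroglioblastoma cells stably carrying a luciferase reporter gene fusion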
[28] = target: T3, Alkaline phosphatase, tissue-nonspecific isozyme (Homo sapiens, UniProt P05186)
T3 sequence (P05186 whole entry): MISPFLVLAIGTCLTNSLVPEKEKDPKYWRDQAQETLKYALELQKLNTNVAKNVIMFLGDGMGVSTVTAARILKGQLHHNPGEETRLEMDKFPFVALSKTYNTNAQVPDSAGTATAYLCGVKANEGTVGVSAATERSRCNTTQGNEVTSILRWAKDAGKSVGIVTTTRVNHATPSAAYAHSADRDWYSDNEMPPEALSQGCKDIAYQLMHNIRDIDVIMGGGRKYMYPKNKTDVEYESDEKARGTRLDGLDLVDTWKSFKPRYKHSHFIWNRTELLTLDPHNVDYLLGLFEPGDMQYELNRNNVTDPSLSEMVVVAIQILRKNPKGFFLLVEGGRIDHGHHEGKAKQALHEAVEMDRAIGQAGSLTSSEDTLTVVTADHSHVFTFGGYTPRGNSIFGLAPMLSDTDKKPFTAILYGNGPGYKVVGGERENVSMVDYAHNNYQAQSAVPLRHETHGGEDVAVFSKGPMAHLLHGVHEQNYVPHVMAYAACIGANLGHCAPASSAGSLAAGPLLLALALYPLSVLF

Wee1-like protein kinase = Wee1-like protein kinase (Homo sapiens, UniProt P30291); test: Dose Response Cell-based Assay for Inhibitors of Wee1 Degradation. [Related pubchem assays: 1410, 1321 ]; format: functional
Sequence of Wee1-like protein kinase (P30291 whole entry): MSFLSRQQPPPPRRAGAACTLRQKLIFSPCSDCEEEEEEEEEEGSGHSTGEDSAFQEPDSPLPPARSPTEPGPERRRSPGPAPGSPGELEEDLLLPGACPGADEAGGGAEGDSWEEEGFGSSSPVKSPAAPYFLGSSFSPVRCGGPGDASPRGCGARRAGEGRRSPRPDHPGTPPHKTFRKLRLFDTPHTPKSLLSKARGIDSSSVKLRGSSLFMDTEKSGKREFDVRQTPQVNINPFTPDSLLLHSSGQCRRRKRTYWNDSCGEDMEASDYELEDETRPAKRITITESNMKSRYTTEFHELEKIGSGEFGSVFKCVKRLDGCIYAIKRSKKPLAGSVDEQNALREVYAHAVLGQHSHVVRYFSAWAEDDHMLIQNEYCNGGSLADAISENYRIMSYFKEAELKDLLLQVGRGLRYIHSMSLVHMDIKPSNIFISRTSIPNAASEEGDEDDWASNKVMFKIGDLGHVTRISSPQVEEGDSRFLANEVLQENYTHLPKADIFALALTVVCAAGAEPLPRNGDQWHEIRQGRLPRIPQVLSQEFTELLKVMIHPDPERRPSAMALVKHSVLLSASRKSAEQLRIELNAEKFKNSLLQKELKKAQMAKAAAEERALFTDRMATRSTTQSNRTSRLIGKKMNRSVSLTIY

[29] = target: G2/mitotic-specific cyclin-B1 (Homo sapiens, UniProt P14635); test: Counterscreen assay for inhibitors of Wee1 degradation: dose response cell-based assay to identify inhibitors of cyclin B degradation. [Related pubchem assays: 1410, 1321 ]; format: functional
Sequence of G2/mitotic-specific cyclin-B1 (P14635 whole entry): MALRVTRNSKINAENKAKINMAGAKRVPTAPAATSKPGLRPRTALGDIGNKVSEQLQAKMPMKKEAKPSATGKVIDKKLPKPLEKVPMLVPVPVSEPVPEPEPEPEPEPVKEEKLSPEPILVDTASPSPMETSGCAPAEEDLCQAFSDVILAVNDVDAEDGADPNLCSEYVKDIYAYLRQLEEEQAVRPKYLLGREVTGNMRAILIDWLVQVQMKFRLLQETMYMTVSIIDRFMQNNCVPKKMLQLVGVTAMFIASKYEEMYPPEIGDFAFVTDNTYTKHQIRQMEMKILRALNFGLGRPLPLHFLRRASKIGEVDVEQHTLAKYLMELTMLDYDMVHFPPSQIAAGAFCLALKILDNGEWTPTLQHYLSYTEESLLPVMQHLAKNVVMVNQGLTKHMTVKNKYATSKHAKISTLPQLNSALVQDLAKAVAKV

Bcl-2-like protein 10 = Bcl-2-like protein 10 (Homo sapiens, UniProt Q9HD36); test: Concentration-response of Bcl-B inhibitors by biochemical FP with TR3 (AID 1243); format: functional
Sequence of Bcl-2-like protein 10 (Q9HD36 whole entry): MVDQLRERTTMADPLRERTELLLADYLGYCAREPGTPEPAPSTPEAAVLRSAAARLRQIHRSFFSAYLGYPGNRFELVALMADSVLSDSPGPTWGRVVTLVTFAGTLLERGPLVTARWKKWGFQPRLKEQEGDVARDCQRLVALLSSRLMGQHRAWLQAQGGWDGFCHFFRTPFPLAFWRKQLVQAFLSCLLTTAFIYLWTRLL

Sequence of Cytochrome P450 3A4 (P08684 whole entry): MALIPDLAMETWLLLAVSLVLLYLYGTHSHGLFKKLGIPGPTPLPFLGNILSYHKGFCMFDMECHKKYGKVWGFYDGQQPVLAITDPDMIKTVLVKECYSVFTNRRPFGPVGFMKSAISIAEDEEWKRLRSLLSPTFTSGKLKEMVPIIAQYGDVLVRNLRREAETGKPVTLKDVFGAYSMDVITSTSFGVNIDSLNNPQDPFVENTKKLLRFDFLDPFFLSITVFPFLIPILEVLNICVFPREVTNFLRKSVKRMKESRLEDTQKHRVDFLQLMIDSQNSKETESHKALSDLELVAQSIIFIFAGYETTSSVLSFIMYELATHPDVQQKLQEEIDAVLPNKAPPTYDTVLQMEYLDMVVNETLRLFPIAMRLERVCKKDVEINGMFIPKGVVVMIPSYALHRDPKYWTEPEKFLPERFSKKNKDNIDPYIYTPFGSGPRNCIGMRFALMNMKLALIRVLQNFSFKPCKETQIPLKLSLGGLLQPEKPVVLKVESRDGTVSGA
Sequence of Cytochrome P450 2D6 (P10635 whole entry): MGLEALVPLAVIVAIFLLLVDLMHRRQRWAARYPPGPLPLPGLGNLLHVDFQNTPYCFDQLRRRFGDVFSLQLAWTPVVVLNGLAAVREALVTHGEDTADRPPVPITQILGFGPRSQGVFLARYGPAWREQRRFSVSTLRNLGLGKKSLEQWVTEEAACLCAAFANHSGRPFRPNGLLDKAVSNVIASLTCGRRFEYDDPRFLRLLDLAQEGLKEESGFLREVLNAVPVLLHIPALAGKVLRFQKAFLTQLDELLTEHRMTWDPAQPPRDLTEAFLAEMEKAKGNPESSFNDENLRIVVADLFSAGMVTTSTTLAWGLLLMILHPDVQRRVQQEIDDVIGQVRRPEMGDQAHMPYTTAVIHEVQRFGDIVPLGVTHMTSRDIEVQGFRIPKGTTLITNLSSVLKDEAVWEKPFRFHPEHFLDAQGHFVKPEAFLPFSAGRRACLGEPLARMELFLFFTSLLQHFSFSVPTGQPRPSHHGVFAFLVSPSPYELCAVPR

Compound: COc1cccc2[nH]c(-c3ccccn3)nc12
- AC50 (Cytochrome P450 3A4): 3.98 µM (inconclusive)
- AC50 (Cytochrome P450 2D6): 1.58 µM (inconclusive)

Compound: CCC1=NN2C(=N)/C(=C\c3cccn3-c3c(C)cccc3C)C(=O)N=C2S1
- IC50 [1]: 38.4 µM (active)
- IC50 (cells [2]): 20.7 µM (active)
- CC50 [3]: 19.5 µM (active)
- AC50 [4]: > 100 µM (inactive)

Compound: COc1cc(OC)nc(-n2ncc(Br)c(Br)c2=O)n1
- CC50 [5]: 1.36 µM (active)
- AC50 (Paired box protein Pax-8): 2.66 µM (active)
- CC50 [6]: 1.98 µM (active)
- IC50 [7]: 2.69 µM (active)
- EC50 [8]: < 0.059 µM (active)
- IC50 (cells [9]): 6.73 µM (active)
- AC50 [10]: 20.6 µM (active)
- IC50 [11]: 1.18 µM (active)
- CC50 [12]: 0.402 µM (active)
- CC50 (HeLa): > 1.22 µM (not active)
- IC50 (Beta Lactamase): > 49.7 µM (inactive)
- EC50 [13]: < 0.059 µM (active)
- IC50 (CHO): 0.546 µM (active)
- AC50 (INS1): 6.03 µM (active)

Compound: CCC(C(=O)O)n1nnc(-c2ccc(-c3ccc(OC)cc3)cc2)n1 (configuration not stated)
- IC50 (NS3): 8.42 µM (active)

Compound: CCOc1ccc(Cl)cc1S(=O)(=O)n1cnc2cc(C)c(C)cc21
- EC50 [14]: 23.8 µM (active)
- EC50 (Streptococcus [15]): > 150 µM (not active)
- EC50 (Streptokinase A): 7.31 µM (active)
- EC50 (Streptococcus [16]): > 500 µM (not active)

Compound: Cc1nc(N)nc(N)c1/C=C/C(C)(C)c1ccc(Cl)cc1
- EC50 [17]: < 0.1 µM (active)
- EC50 (cells [18]): 0.012 µM (active)
- EC50 (BJ [19]): 15.9 µM (active)
- EC50 (BJ [20]): > 133 µM (inactive)
- EC50 (BJ [21]): < 0.12 µM (active)
- EC50 [22]: < 0.1 µM (active)
- IC50 (Aminopeptidase N): 66.2 µM (active)
- EC50 [23]: < 0.1 µM (active)
- IC50 [24]: > 0.00202 µM (active)
- EC50 (BJ [25]): > 150 µM (inconclusive)
- EC50 [26]: < 0.001 µM (active)
- AC50 (HEK293): 0.0458 µM (active)
- EC50 [27]: 0.009 µM (active)

Compound: CCCCNC(=O)CSc1nc2cc3c(cc2c(=O)n1CCC(=O)NCCc1ccc(OC)c(OC)c1)OCO3
- EC50 [28]: > 100 µM (not active)

Compound: COc1ccc(Nc2oc(-c3ccc(OC)cc3)nc2C#N)cc1
- EC50 (Wee1-like protein kinase): > 49.7 µM (not active)
- EC50 [29]: > 49.7 µM (not active)

Compound: Cc1ccc(C)n1-c1ccc(C(=O)O)c(Cl)c1
- EC50 (Bcl-2-like protein 10): 9.96 µM (active)
